Test results published in publication PMC9853918 (Journal of chemical information and modeling, 2022).

Legend:
(UniProt D5GU71) = test: βGUS; format: biochemical, uncultured bacterium
H11G11-BG βGUS = test: βGUS; format: biochemical, uncultured bacterium; settings: for efficacy: 0.5 nM GUS, 100 μM 4MUG, 1 hr at room temperature, negative = inhibition; for curve class (CC): dose-response curve class

(UniProt D5GU71), sequence (D5GU71 1-754): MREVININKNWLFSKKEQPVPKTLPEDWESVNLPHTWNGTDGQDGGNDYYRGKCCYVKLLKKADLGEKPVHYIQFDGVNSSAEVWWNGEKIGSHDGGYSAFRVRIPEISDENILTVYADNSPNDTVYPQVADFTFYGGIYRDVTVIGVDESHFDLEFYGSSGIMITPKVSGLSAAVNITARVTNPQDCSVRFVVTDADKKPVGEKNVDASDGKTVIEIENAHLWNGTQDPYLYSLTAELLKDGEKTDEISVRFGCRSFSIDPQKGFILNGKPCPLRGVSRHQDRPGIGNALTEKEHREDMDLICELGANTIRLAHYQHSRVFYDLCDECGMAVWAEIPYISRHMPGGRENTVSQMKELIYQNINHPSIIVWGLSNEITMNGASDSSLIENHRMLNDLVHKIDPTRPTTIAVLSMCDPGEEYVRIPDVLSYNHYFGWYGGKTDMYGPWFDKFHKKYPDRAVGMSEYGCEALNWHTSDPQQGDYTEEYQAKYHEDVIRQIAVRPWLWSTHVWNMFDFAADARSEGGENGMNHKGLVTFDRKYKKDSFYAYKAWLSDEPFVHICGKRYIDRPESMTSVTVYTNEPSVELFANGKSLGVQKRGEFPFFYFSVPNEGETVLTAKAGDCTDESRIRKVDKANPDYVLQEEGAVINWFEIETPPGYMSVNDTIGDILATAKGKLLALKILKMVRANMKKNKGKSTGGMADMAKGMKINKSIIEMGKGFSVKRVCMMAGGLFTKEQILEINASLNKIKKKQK

Row | SMILES | IC50 ((UniProt D5GU71)) [µM] | efficacy (H11G11-BG βGUS) [%] | curve class (CC) (H11G11-BG βGUS)
1 | O=C(Nc1cccc(-c2nc3ncccc3o2)c1)c1ccc(-c2cccc(Cl)c2Cl)o1 [NCGC00099510, 5-(2,3-dichlorophenyl)-N-(3-(oxazolo[4,5-b]pyridine-2-yl)phenyl)furan-2-carboxamide] | 9.6 | −70 | −1.2
2 | c1ccc(Nc2cc3c(cn2)CN(CC2CC2)CCN3)cc1 [NCGC00411059, 4-(cyclopropylmethyl)-N-phenyl-2,3,4,5-tetrahydro-1H-pyrido[4,3-e][1,4]diazepin-8-amine] |  | −72 | −2.2
